Biological target: T1, HMG-CoA (Homo sapiens, UniProt P04035)
T1 sequence (P04035 426-888 limits assumed): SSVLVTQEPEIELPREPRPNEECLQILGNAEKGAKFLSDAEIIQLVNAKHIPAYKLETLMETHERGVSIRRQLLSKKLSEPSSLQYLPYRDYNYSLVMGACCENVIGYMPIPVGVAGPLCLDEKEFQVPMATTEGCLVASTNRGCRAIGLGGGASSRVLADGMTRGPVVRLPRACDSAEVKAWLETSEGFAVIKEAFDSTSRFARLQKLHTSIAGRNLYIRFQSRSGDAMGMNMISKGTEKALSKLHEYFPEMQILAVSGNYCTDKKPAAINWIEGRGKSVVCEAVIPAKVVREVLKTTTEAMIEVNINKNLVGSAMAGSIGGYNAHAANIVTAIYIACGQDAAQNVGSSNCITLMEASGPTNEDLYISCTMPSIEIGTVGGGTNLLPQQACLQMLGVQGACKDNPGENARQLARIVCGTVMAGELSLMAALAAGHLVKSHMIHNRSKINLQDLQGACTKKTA
Conditions: FIG. 17; S565 hydrogen bond

Compound | binding sites when binding to HMG-CoA
CC(C)c1c(C(=O)Nc2ccccc2)c(-c2ccccc2)c(-c2ccc(F)cc2)n1CC[C@@H](O)C[C@@H](O)CC(=O)O [atorvastatin] | many binding sites (S565)
CC(C)c1nc(N(C)S(C)(=O)=O)nc(-c2ccc(F)cc2)c1/C=C/[C@@H](O)C[C@@H](O)CC(=O)O [rosuvastatin] | many binding sites (S565)
